Among the data in patent US20260060961A1, “SUBSTITUTED HETEROCYCLES AS RAS INHIBITORS” (Jazz Pharmaceuticals Ireland Limited, priority 2022, published 2026) are IC50 values, retold here.

Sequence of Recombinant human KRAS protein containing the G12C amino acid substitution (P01116 other isoform, or with tags, fused parts or gaps G12C): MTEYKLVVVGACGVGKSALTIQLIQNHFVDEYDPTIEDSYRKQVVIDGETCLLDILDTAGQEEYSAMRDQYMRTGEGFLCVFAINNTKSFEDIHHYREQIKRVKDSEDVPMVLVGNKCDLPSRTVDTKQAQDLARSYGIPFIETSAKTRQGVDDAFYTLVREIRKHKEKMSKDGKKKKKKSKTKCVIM

For the assay, the target named is Recombinant human KRAS protein containing the G12C amino acid substitution (Homo sapiens (Human), UniProt P01116, G12C). The experiment in a line: HTRF nucleotide exchange assay, KRAS G12C. It is filed as biochemical. As to conditions: 180 minute incubation with compound at room temperature; at least two independent replicates; read-out: KRAS G12C HTRF NEA IC50. The protocol:
The capacity of compounds to bind KRAS G12C and KRAS wildtype was quantified using a HTRF nucleotide exchange assay. Recombinant human KRAS protein (5 nM; aa1-188 KRAS WT or KRAS containing the G12C amino acid substitution, an N-terminal 6×His-tag and leader sequence), and 2 nM Europium-labeled anti-6×His antibody were mixed in assay buffer (10 mM HEPES pH7.3, 75 mM NaCl, 5 mM MgCl2, 0.05% BSA, 0.0025% NP-40 and 100 mM KF) with various concentrations of compound in a 384-well plate and a volume of 5 μL. After a 180 minute incubation at room temperature, 5 μl of 200 nM EDA-GTP-DY647P1 diluted in assay buffer was added to the plate. Following 30-minute incubation at room temperature, time-resolved fluorescence was measured on a PerkinElmer Envision plate reader. DMSO (0.3%) and unlabeled GDP (1 μM) or equivalent tool compound were used to generate the Max and Min assay signals, respectively. Data was analysed using a four-parameter logistic model to calculate IC50 values, with at least two independent replicates were performed for each compound.
A general note: Time-resolved FRET reads energy transfer from a long-lived donor to a nearby acceptor.
The IC50 is the concentration at which inhibition is half-maximal. For `C=CC(=O)N1CC2(CC(c3nc(-c4cn(C)nc4C)c(-c4c(C)ccc5[nH]ncc45)n3C)C2)C1` [Example 12, 1-[6-[4-(1,3-dimethylpyrazol-4-yl)-1-methyl-5-(5-methyl-1H-indazol-4-yl)imidazol-2-yl]-2-azaspiro[3.3]heptan-2-yl]prop-2-en-1-one], the IC50 was ≥ 10000 nM. As for `C=CC(=O)N1CC2(CC(c3nc(-c4cccnc4)c(-c4c(C)ccc5[nH]ncc45)n3C)C2)C1` [Example 3, 1-[6-[1-methyl-5-(5-methyl-1H-indazol-4-yl)-4-(3-pyridyl)imidazol-2-yl]-2-azaspiro[3.3]heptan-2-yl]prop-2-en-1-one], the figure is ≥ 10000 nM; as for `C=CC(=O)N1CC2(CC(c3nc(-c4cnn(CC)c4)c(-c4c(C)ccc5[nH]ncc45)n3C)C2)C1` [Example 13, 1-[6-[4-(1-ethylpyrazol-4-yl)-1-methyl-5-(5-methyl-1H-indazol-4-yl)imidazol-2-yl]-2-azaspiro[3.3]heptan-2-yl]prop-2-en-1-one], ≥ 10000 nM; as for `C=CC(=O)N1CC2(CC(c3nc(-c4ccccc4)c(-c4c(C)ccc5[nH]ncc45)n3C)C2)C1` [Example 2, 1-[6-[1-methyl-5-(5-methyl-1H-indazol-4-yl)-4-phenyl-imidazol-2-yl]-2-azaspiro[3.3]heptan-2-yl]prop-2-en-1-one], 1000 to 10000 nM.

With `C=CC(=O)N1CC2(CC(c3nc(-c4ccc(N5CCOCC5)cc4)c(-c4cc(O)cc5ccccc45)n3C)C2)C1` [Example 27, 1-[6-[5-(3-hydroxy-1-naphthyl)-1-methyl-4-(4-morpholinophenyl)imidazol-2-yl]-2-azaspiro[3.3]heptan-2-yl]prop-2-en-1-one], the IC50 is ≤ 1000 nM. On to `C=CC(=O)N1CC2(CC(c3nc(-c4ccc5nn(C)cc5c4)c(-c4cc(O)cc5ccccc45)n3C)C2)C1` [Example 28, 1-[6-[5-(3-hydroxy-1-naphthyl)-1-methyl-4-(2-methylindazol-5-yl)imidazol-2-yl]-2-azaspiro[3.3]heptan-2-yl]prop-2-en-1-one], for which the half-maximal inhibitory concentration (IC50) is ≤ 1000 nM.

Turning to `C=CC(=O)N1CC2(CC(c3nc(-c4ccc5c(cnn5C)c4)c(-c4cc(O)ccc4C(F)(F)F)n3C)C2)C1` [Example 39, 1-[6-[5-[5-hydroxy-2-(trifluoromethyl)phenyl]-1-methyl-4-(1-methylindazol-5-yl)imidazol-2-yl]-2-azaspiro[3.3]heptan-2-yl]prop-2-en-1-one], the IC50 is ≤ 1000 nM. As for `C=CC(=O)N1CC2(CC(c3nc(-c4ccc(N5CCOCC5)cc4)c(-c4cc(O)cc5ccccc45)n3CC)C2)C1` [Example 33, 1-[6-[1-ethyl-5-(3-hydroxy-1-naphthyl)-4-(4-morpholinophenyl)imidazol-2-yl]-2-azaspiro[3.3]heptan-2-yl]prop-2-en-1-one], the figure is ≤ 1000 nM; as for `C=CC(=O)N1CC2(CC(c3nc(-c4ccc5c(cnn5C)c4)c(-c4cc(O)cc5cccc(Cl)c45)n3C)C2)C1` [Example 35, 1-[6-[5-(8-chloro-3-hydroxy-1-naphthyl)-1-methyl-4-(1-methylindazol-5-yl)imidazol-2-yl]-2-azaspiro[3.3]heptan-2-yl]prop-2-en-1-one], ≤ 1000 nM; as for `C=CC(=O)N1CC2(CC(c3nc(-c4cccc(N5CCOCC5)c4)c(-c4c(C)ccc5[nH]ncc45)n3C)C2)C1` [Example 6, 1-[6-[1-methyl-5-(5-methyl-1H-indazol-4-yl)-4-(3-morpholinophenyl)imidazol-2-yl]-2-azaspiro[3.3]heptan-2-yl]prop-2-en-1-one], 1000 to 10000 nM. As to `C=CC(=O)N1CC2(CC(c3nc(-c4ccc5c(cnn5C)c4)c(-c4cccc5sc(N)c(C#N)c45)n3C)C2)C1` [Example 36, 2-amino-4-[3-methyl-5-(1-methylindazol-5-yl)-2-(2-prop-2-enoyl-2-azaspiro[3.3]heptan-6-yl)imidazol-4-yl]benzothiophene-3-carbonitrile], the IC50 was in the range of 1000 to 10000 nM. On to `C=CC(=O)N1CC2(CC(c3nc(-c4ccc5c(cnn5C)c4)c(-c4c(C)c(C)cc5[nH]ncc45)n3C)C2)C1` [Example 38, 1-[6-[5-(5,6-dimethyl-1H-indazol-4-yl)-1-methyl-4-(1-methylindazol-5-yl)imidazol-2-yl]-2-azaspiro[3.3]heptan-2-yl]prop-2-en-1-one], for which the IC50 is ≤ 1000 nM. As for `C=CC(=O)N1CC2(CC(c3nc(-c4ccc(C(=O)NCCN5CCOCC5)cc4)c(-c4cc(O)cc5ccccc45)n3C)C2)C1` [Example 37, 4-[5-(3-hydroxy-1-naphthyl)-1-methyl-2-(2-prop-2-enoyl-2-azaspiro[3.3]heptan-6-yl)imidazol-4-yl]-N-(2-morpholinoethyl)benzamide], the figure is ≤ 1000 nM.
